Laboratory results reported in US20200123422A1, “Photocurable Adhesive Sheet, Image Display Device Constituent Laminate, Image Display Device Production Method and Method for Preventing Corrosion of Conductive Member” (Mitsubishi Chemical Corporation, priority 2017, published 2020).
In brackets after ≈: the same amount, converted by molar mass.

How the values were obtained:
[1] = Absorption coefficient at a wavelength of 365 nm; format: physicochemical; settings: at 365 nm
Text: The absorption coefficient can be determined by the following formula.
α365: absorption coefficient at a wavelength of 365 nm [mL/(g·cm)]
A365: absorbance at a wavelength of 365 nm
c: solution concentration [g/mL]
d: optical path length (of quartz cell) [cm]
In addition, when calculating the absorption coefficient, an absorbance converted from the measurement result of the transmittance may also be used.
T365: light transmittance at a wavelength of 365 nm [%]

Aqueous solubility = format: physicochemical
Experimental: From such a viewpoint, the metal corrosion inhibitor preferably has an aqueous solubility at 25° C. of 20 g/L or more, more preferably 50 g/L or more, particularly preferably 100 g/L or more.

Question: With `c1c[nH]nn1` [Example D-1, 1,2,3-triazole] as the compound, how does the absorption coefficient [1] read?
Answer: 0.3 mL/g/cm

Question: What about the aqueous solubility (Aqueous solubility) of the same compound?
Answer: > 1,000 g/L

Question: With `c1nc[nH]n1` [Example D-2, 1,2,4-triazole] as the compound, how does the absorption coefficient [1] read?
Answer: 0.3 mL/g/cm

Question: What about the aqueous solubility (Aqueous solubility) of the same compound?
Answer: > 1,000 g/L

Question: For `c1ccc2[nH]nnc2c1` [Example D-3, 1,2,3-benzotriazole], which absorption coefficient [1] is on record?
Answer: 0.8 mL/g/cm

Question: And the aqueous solubility (Aqueous solubility)?
Answer: 20 g/L (≈ 168 mM)

Question: For `Sc1nnc(S)s1` [Example D-4, 2,5-dimercapto-1,3,4-thiadiazole, reference compound], which absorption coefficient [1] is on record?
Answer: 90 mL/g/cm

Question: And the solubility (Aqueous solubility; water, 25 °C)?
Answer: 20 mg/mL (≈ 133 mM)

Question: Which absorption coefficient [1] does the source give for `S=c1[nH]c2ccccc2s1` [Example D-5, mercaptobenzothiazole, reference compound] here?
Answer: 65 mL/g/cm

Question: And the aqueous solubility (Aqueous solubility)?
Answer: 0.3 g/L (≈ 1.79 mM)
